From paper PMC12775434, “Ultra-large virtual screening unveils potent agonists of the neuromodulatory orphan receptor GPR139” (Nature Communications, 2025)
Values joined by “and” are separate entries in the source; they are usually repeats but may differ in a detail not shown here. Identical values can stand only once.

Legend:
Assay type in all cases: cell-based
GPR139 [1] = target: T1, GPR139 (Homo sapiens, UniProt Q6DWJ6); assay: Ca2+ mobilization assay, antagonist mode (EC80 800 nM Lundbeck Cmp 1a after 20 min preincubation), GPR139-CHOk1; details: individual replicates (Supplementary Figure 4)
T1 sequence (Q6DWJ6 1-353): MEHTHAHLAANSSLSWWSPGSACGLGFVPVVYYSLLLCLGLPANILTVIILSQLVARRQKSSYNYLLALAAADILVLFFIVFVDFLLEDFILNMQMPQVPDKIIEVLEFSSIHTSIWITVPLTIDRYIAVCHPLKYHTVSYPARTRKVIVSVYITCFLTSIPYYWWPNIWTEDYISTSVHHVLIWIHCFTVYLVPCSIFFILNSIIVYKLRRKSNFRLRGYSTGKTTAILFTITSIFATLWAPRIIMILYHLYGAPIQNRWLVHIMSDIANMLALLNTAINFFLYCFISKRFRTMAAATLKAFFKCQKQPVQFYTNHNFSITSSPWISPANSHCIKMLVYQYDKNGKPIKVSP
In short: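 Antagonist mode: 800 nM (EC80) reference agonist Lundbeck Cmp 1a added following 20 min pre-incubation with 10 µM compound. GPR139-CHOk1 cells, Fluo-4 dye, probenecid-containing HEPES buffer pH 7.4; intracellular Ca2+ measured at 37 °C (ex 485, em 525 nm).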

GPR139 [2] = target: T1, GPR139; assay: Ca2+ mobilization assay, agonist mode, stable GPR139-CHOk1 cell line; details: for EC50 / Emax: Supplementary Table 2, mean ± SEM; for EC50: read-out: pEC50 Ca2+ (converted); for Emax: normalized to Lundbeck Cmp 1a, read-out: Emax (%) Ca2+
In short: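 Agonist activity of compounds is assessed in stably transfected CHO-K1 cells using the calcium dye Fluo-4 at 37 °C in HEPES-buffered HBSS (pH 7.4). Efficacy is expressed relative to the reference agonist Lundbeck Cmp 1a, set as 100%.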

[3] = target: T2, human muscarinic acetylcholine M1 receptor (M1R) (Homo sapiens, UniProt P11229); assay: Ca2+ mobilization counter-screen in M1R-CHOk1 cells; details: individual replicates (Supplementary Figure 5);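 also: 10 µM test compound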
T2 sequence (P11229 1-460): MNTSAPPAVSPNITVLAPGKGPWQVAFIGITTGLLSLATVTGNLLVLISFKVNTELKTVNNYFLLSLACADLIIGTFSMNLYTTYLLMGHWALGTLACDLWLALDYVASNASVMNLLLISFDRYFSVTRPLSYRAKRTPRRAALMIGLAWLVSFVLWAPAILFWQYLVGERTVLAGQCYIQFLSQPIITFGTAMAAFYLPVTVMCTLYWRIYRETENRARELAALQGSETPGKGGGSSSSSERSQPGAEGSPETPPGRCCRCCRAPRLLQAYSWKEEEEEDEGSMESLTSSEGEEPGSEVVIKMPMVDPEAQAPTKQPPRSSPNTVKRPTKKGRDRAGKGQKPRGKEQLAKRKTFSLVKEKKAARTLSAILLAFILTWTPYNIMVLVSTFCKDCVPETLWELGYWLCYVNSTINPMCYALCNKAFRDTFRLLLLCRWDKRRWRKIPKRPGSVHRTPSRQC
In short: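 Counter-screen used CHO-K1 cells stably carrying human M1R, Fluo-4 AM-loaded (2 µM, 1 h, 37 °C). Calcium signal measured at 485/525 nm after compound addition.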

[4] = Agonist mode, individual replicates (Supplementary Figure 4)
[5] = log [Compound] M = -4.5, individual replicate columns
[6] = log [Compound] M = -5.0, individual replicate columns
[7] = log [Compound] M = -5.5, individual replicate columns
[8] = log [Compound] M = -6.0, individual replicate columns
[9] = log [Compound] M = -6.5, individual replicate columns
[10] = log [Compound] M = -7.0, individual replicate columns
[11] = log [Compound] M = -7.5, individual replicate columns
[12] = log [Compound] M = -8.0, individual replicate columns
[13] = log [Compound] M = -8.5, individual replicate columns
[14] = log [Compound] M = -9.0, individual replicate columns

Structure (SMILES): Cc1cncc(-c2nc(CC(=O)NC(C)c3ccccc3)no2)c1 (stereo not shown) [Compound 1.24, CC(C1=CC=CC=C1)NC(CC2=NOC(C3=CC(C)=CN=C3)=N2)=O]
- Ca2+ signal (% of Cmp 1a) (GPR139 [1]): 5.33 % of Cmp 1a and 17 % of Cmp 1a and -8 % of Cmp 1a
- Ca2+ signal (% of Cmp 1a) (GPR139 [2]; [4]): 83 % of Cmp 1a and 52 % of Cmp 1a and 78 % of Cmp 1a
- fold decrease in potency relative to a similar phenyl substituted compound (1.3) (GPR139 [2]; Ca2+ mobilization EC50): 4- to 16 fold
- EC50 (GPR139 [2]): 1580 nM
- Emax (GPR139 [2]): 91 ± 4%
- Ca2+ signal (% of Cmp 1a) (GPR139 [2]; [5]): 103 % of Cmp 1a and 95 % of Cmp 1a and 70 % of Cmp 1a and 88 % of Cmp 1a and 90 % of Cmp 1a
- Ca2+ signal (% of Cmp 1a) (GPR139 [2]; [6]): 68 % of Cmp 1a and 86 % of Cmp 1a and 73 % of Cmp 1a and 72 % of Cmp 1a and 97 % of Cmp 1a
- Ca2+ signal (% of Cmp 1a) (GPR139 [2]; [7]): 50 % of Cmp 1a and 66 % of Cmp 1a and 58 % of Cmp 1a and 47 % of Cmp 1a and 97 % of Cmp 1a
- Ca2+ signal (% of Cmp 1a) (GPR139 [2]; [8]): 24 % of Cmp 1a and 41 % of Cmp 1a and 39 % of Cmp 1a and 38 % of Cmp 1a and 62 % of Cmp 1a
- Ca2+ signal (% of Cmp 1a) (GPR139 [2]; [9]): 1.31 % of Cmp 1a and 19 % of Cmp 1a and 31 % of Cmp 1a and 8.44 % of Cmp 1a and 34 % of Cmp 1a
- Ca2+ signal (% of Cmp 1a) (GPR139 [2]; [10]): 2.29 % of Cmp 1a and 0.399 % of Cmp 1a and 4 % of Cmp 1a and 2 % of Cmp 1a and 17 % of Cmp 1a
- Ca2+ signal (% of Cmp 1a) (GPR139 [2]; [11]): -0.0494 % of Cmp 1a and 2.8 % of Cmp 1a and -5.43 % of Cmp 1a and 8 % of Cmp 1a and 5.52 % of Cmp 1a
- Ca2+ signal (% of Cmp 1a) (GPR139 [2]; [12]): -0.83 % of Cmp 1a and 7.38 % of Cmp 1a and -0.358 % of Cmp 1a and 15 % of Cmp 1a and 4 % of Cmp 1a
- Ca2+ signal (% of Cmp 1a) (GPR139 [2]; [13]): 3.55 % of Cmp 1a and 3 % of Cmp 1a and -1.51 % of Cmp 1a and 6 % of Cmp 1a and 3.35 % of Cmp 1a
- Ca2+ signal (% of Cmp 1a) (GPR139 [2]; [14]): 2 % of Cmp 1a and 1.41 % of Cmp 1a and 6 % of Cmp 1a and 4 % of Cmp 1a and 3 % of Cmp 1a
- Ca2+ signal (% of Carbachol) [3]: -0.598 % of Carbachol and 5 % of Carbachol and 4.73 % of Carbachol

Structure (SMILES): Cc1ncc(-c2nc(CC(=O)NC(C)c3ccccc3)no2)o1 (stereo not shown) [Compound 1.25, CC(C1=CC=CC=C1)NC(CC2=NOC(C3=CN=C(O3)C)=N2)=O]
- Ca2+ signal (% of Cmp 1a) (GPR139 [1]): 3 % of Cmp 1a and 15 % of Cmp 1a and 5.33 % of Cmp 1a
- Ca2+ signal (% of Cmp 1a) (GPR139 [2]; [4]): 86 % of Cmp 1a and 76 % of Cmp 1a and 90 % of Cmp 1a
- EC50 (GPR139 [2]): 2000 nM
- Emax (GPR139 [2]): 97 ± 3%
- Ca2+ signal (% of Cmp 1a) (GPR139 [2]; [5]): 107 % of Cmp 1a and 102 % of Cmp 1a and 85 % of Cmp 1a and 96 % of Cmp 1a and 104 % of Cmp 1a
- Ca2+ signal (% of Cmp 1a) (GPR139 [2]; [6]): 92 % of Cmp 1a (2×) and 95 % of Cmp 1a and 77 % of Cmp 1a and 93 % of Cmp 1a
- Ca2+ signal (% of Cmp 1a) (GPR139 [2]; [7]): 62 % of Cmp 1a and 74 % of Cmp 1a and 52 % of Cmp 1a and 93 % of Cmp 1a and 64 % of Cmp 1a
- Ca2+ signal (% of Cmp 1a) (GPR139 [2]; [8]): 43 % of Cmp 1a and 38 % of Cmp 1a and 31 % of Cmp 1a and 47 % of Cmp 1a and 36 % of Cmp 1a
- Ca2+ signal (% of Cmp 1a) (GPR139 [2]; [9]): 17 % of Cmp 1a and 13 % of Cmp 1a and 4.22 % of Cmp 1a and 19 % of Cmp 1a and 9 % of Cmp 1a
- Ca2+ signal (% of Cmp 1a) (GPR139 [2]; [10]): 7 % of Cmp 1a and 2.6 % of Cmp 1a and -3 % of Cmp 1a and 12 % of Cmp 1a and 3.24 % of Cmp 1a
- Ca2+ signal (% of Cmp 1a) (GPR139 [2]; [11]): 10 % of Cmp 1a and 2.43 % of Cmp 1a and 2 % of Cmp 1a and 1.64 % of Cmp 1a and 4 % of Cmp 1a
- Ca2+ signal (% of Cmp 1a) (GPR139 [2]; [12]): 3 % of Cmp 1a and 6 % of Cmp 1a (2×) and 5 % of Cmp 1a and 4.25 % of Cmp 1a
- Ca2+ signal (% of Cmp 1a) (GPR139 [2]; [13]): -0.76 % of Cmp 1a and -1.77 % of Cmp 1a and 0.877 % of Cmp 1a and 5.4 % of Cmp 1a and 0.153 % of Cmp 1a
- Ca2+ signal (% of Cmp 1a) (GPR139 [2]; [14]): 0.813 % of Cmp 1a and 0.273 % of Cmp 1a and -1 % of Cmp 1a and 1 % of Cmp 1a and 2.54 % of Cmp 1a
- Ca2+ signal (% of Carbachol) [3]: 5.35 % of Carbachol and 0.226 % of Carbachol and -1.63 % of Carbachol

Structure (SMILES): COc1ccc(-c2nc(CC(=O)NC(C)c3ccccc3)no2)cn1 (stereo not shown) [Compound 1.26, COC1=NC=C(C2=NC(CC(NC(C3=CC=CC=C3)C)=O)=NO2)C=C1]
- Ca2+ signal (% of Cmp 1a) (GPR139 [1]): 29 % of Cmp 1a and 2 % of Cmp 1a and 52 % of Cmp 1a
- Ca2+ signal (% of Cmp 1a) (GPR139 [2]; [4]): 85 % of Cmp 1a and 87 % of Cmp 1a and 69 % of Cmp 1a
- EC50 (GPR139 [2]): 2000 nM
- Emax (GPR139 [2]): 94 ± 9%
- Ca2+ signal (% of Cmp 1a) (GPR139 [2]; [5]): 87 % of Cmp 1a and 80 % of Cmp 1a and 98 % of Cmp 1a
- Ca2+ signal (% of Cmp 1a) (GPR139 [2]; [6]): 81 % of Cmp 1a and 61 % of Cmp 1a and 119 % of Cmp 1a
- Ca2+ signal (% of Cmp 1a) (GPR139 [2]; [7]): 56 % of Cmp 1a and 44 % of Cmp 1a and 97 % of Cmp 1a
- Ca2+ signal (% of Cmp 1a) (GPR139 [2]; [8]): 34 % of Cmp 1a and 6.33 % of Cmp 1a and 46 % of Cmp 1a
- Ca2+ signal (% of Cmp 1a) (GPR139 [2]; [9]): 12 % of Cmp 1a and -9 % of Cmp 1a and 7 % of Cmp 1a
- Ca2+ signal (% of Cmp 1a) (GPR139 [2]; [10]): 8 % of Cmp 1a and 3 % of Cmp 1a and 10 % of Cmp 1a
- Ca2+ signal (% of Cmp 1a) (GPR139 [2]; [11]): 2.67 % of Cmp 1a and 0 % of Cmp 1a and -4.67 % of Cmp 1a
- Ca2+ signal (% of Cmp 1a) (GPR139 [2]; [12]): -9 % of Cmp 1a (2×) and 6.33 % of Cmp 1a
- Ca2+ signal (% of Cmp 1a) (GPR139 [2]; [13]): 1 % of Cmp 1a and -7 % of Cmp 1a and 3.33 % of Cmp 1a
- Ca2+ signal (% of Cmp 1a) (GPR139 [2]; [14]): -3.33 % of Cmp 1a and -8 % of Cmp 1a and 15 % of Cmp 1a
- Ca2+ signal (% of Carbachol) [3]: -15 % of Carbachol and -8 % of Carbachol and 11 % of Carbachol
